“Also recorded” adds a separate entry of the source.
Experiments:
Format in all cases: in vivo, female Sprague-Dawley rats
[1] = test system: chemically induced bladder hyperactivity; test: Cystometrogram (CMG): liposomes of various lipids infused in the presence of KCl after protamine sulfate (Examples 1-4)
Excerpt: Bladder reflex activity in thirty-four (34) female Sprague-Dawley rats (200-250 g) was studied by cystometry performed under anesthesia with urethane (1.2 g/kg) administered by subcutaneous injection. Body temperature was maintained in the physiologic range using a heating lamp. A transurethral bladder catheter (PE-50) connected by a three-way stopcock to a pressure transducer and to a syringe pump was used to record intravesical pressure and to infuse solutions into the bladder. A control cystometrogram (CMG) was performed by slowly filling the bladder with saline at a rate of 0.04 ml/min to elicit repetitive voiding. The bladder contraction frequency of the reflex bladder contractions were recorded. After performing control CMGs with saline infusion for 3 hours, protamine sulfate (PS) (Sigma Chemical; 10 mg/ml) was infused at a rate of 0.04 ml/min for 1 hour to increase epithelial permeability followed by infusion of the irritant KCl (500 mM) for 1 hour. Subsequently, liposomes made from lipids of various compositions then were infused in the presence of a high concentration of KCl for 2 hours.
The effect of charge on the lipid headgroup in reducing bladder activity in three animal groups (n=5) was determined. Neutrally charged liposomes prepared with L-α-PC (a zwitterionic lipid egg PC) were compared against liposomes having either a positively or negatively charged polar headgroup, namely, 1,2-dioleoyl-3-trimethylammonium-propane (DOTAP) and 1-α-phosphatidylserine (POPS), respectively.
Liposomes were prepared as described by Kirby and Gregoriadis (Kirby, C. J. and Gregoriadia, G., “A simple procedure for preparing liposomes capable of high encapsulation efficiency under mild conditions,” Liposome Technology, G. Gregnoriadis, Ed., C.R.C. Press, Inc., Boca Raton, Fla., 1984, Vol. 1, p. 20, 1984). Briefly, liposomes were constructed as a 2:1 molar ratio of L-α-phosphatidylcholine and cholesterol (Sigma Chemical Co., St. Louis, Mo.) to a final lipid concentration of 1-2 mg/ml in saline. Lipids in chloroform were dried down together in the proper ratio under nitrogen. The residues were reconstituted as liposomes in saline or 500 mM KCl by intense sonication. This lipid composition produced liposomes with no net charge.
Statistical analyses were performed using Student's t test for paired or unpaired data, where applicable. A P-value less than 0.05 was considered significant. All data were expressed as means±S.E. (standard error).
Neutrally charged liposomes prepared with sphingomyelin were compared against liposomes prepared from dihydrosphingomyelin and two pure synthetic lipids: 1,2-distearoyl-sn-glycero-3-phosphocholine (DSPC) and 1,-oleoyl-2-stearoyl-sn-glycero-3-phosphocholine (OSPC).
The methodology of this investigation is the same as described above in Example 1 with the exception that the preparation of liposomes was modified from Example 1. Briefly, liposomes were constructed as a 2:1 molar ratio of sphingomyelin and cholesterol (Sigma Chemical Co., St. Louis, Mo.) to a final lipid concentration of 1-2 mg/ml in saline. Lipids in chloroform were dried down together in the proper ratio under nitrogen. The residues were reconstituted as liposomes in saline or 500 mM KCl by intense sonication. This lipid composition produced sphingomyelin liposomes with no net charge.
Sphingomyelin devoid of its phosphorylcholine head group generates the molecule ceramide, a well known lipid second messenger which mediates a wide range of cellular responses to external stimuli, and also is used for the biosynthesis of sphingomyelin and glycosphingolipids. Because ceramide cannot form stable liposomes by itself, its effect on bladder hyperactivity was tested by including it at 1 mol % in an inert lipid, namely, 1,2-distearoyl-sn-glycero-3-phosphocholine (DSPC).
The methodology of this investigation is the same as described above in Example 1 with the exception that the preparation of liposomes was modified from Example 1. […]

[2] = test system: hyperactive bladder (acetic acid); test: Continuous CMG, hyperactive bladder induced by acetic acid (Examples 5-6)
Experimental: (§1) This was followed by instillation of liposomes (LP) in saline (in the case of the former) or LP/KCl.
(§2) Intravesical bladder pressure was recorded via a transurethral catheter in adult female Sprague-Dawley rats anesthetized with urethane (1.2 g/kg) administered by subcutaneous injection (sc). Some animals were pretreated with capsaicin (125 mg/kg, sc) four days prior to the experiments. […] Parameters measured included intercontraction interval (ICI), amplitude of bladder contractions, compliance and micturition pressure threshold (PT).
(§3) Animal Preparation. Thirty-four female Sprague-Dawley rats (250-300 g) were used in this study. Animals were anesthetized with urethane (1.2 g/kg, sc). Body temperature was maintained in the physiological range using a heating lamp.
(§4) Cystometrogram (CMG). A transurethral bladder catheter (PE-50) was connected via a three-way stopcock to a pressure transducer and to a syringe pump. This was used to record intravesical pressure and to infuse solutions into the bladder. A control CMG was performed by slowly filling the bladder with saline (0.04 ml/min) to elicit repetitive voiding. The parameters recorded were amplitude, PT, compliance, and ICI of reflex bladder contractions. Measurements in each animal represented the average of 3 to 5 bladder contractions.
(§5) Induction of a Hyperactive Bladder. […] L. Cheng et al., 1993, Am. J. Physiol. 265:R132-138). The experimental design is illustrated in FIG. 7. The KCl concentration used was within the range of concentrations present in normal rat urine (M. Ohnishi et al., 2001, Toxicol. Appl. Pharmacol. 174:122-129).
(§6) Preparation of Liposomes (LP). LP were prepared as described by Kirby and Gregoriadis (C. J. Kirby and G. Gregoriadia, 1984, “A simple procedure for preparing liposomes capable of high encapsulation efficiency under mild conditions,” Liposome Technology; G. Gregnoriadis, Ed., C.R.C. Press, Inc., Boca Raton, Fla., Vol. 1, p. 20). Briefly, LP were constructed as a 2:1 molar ratio of L-α-phosphatidylcholine and cholesterol (Sigma Chemical Co., St. Louis, Mo.) to a final lipid concentration of 2 mg/ml in saline. Lipids in chloroform were dried down together in the proper ratio under nitrogen. The residues were reconstituted as LP in saline or 500 mM KCl by intense sonication.
(§7) Statistical Analyis. Statistical analyses were performed using Student's t test for paired or unpaired data, where applicable. A p-value less than 0.05 was considered significant. All data are expressed in Example 2 (below) as means±S.E.

[3] = test system: acute hyperactive bladder; test: Continuous CMG, acute hyperactive bladder model with intravesical PS and KCl (Examples 7-8)
Experimental: An animal model for acute hyperactive bladder in rats was developed using intravesical infusion of PS, an agent used to break down urothelial barrier function and physiological concentrations of KCl.
Continuous CMGs were performed in urethane-anesthetized female rats. The bladder was filled (0.04 ml/min) with normal saline followed by intravesical infusion for a 60 minute period with a test solution comprising either KCl (100 or 500 mM) or PS (10 or 30 mg/ml). Following this, 10 mg/ml PS treated animals were infused intravesically with 100, 300 or 500 mM KCl. Some animals were pretreated with capsaicin ([…], sc) four days before the experiments.
Animal Preparation. The study was performed on 40 female Sprague-Dawley rats weighing 250-300 gm. Animals were anesthetized with 1.2 gm/kg urethane injected subcutaneously. Body temperature was maintained in the physiological range using a heating lamp.
Cystometrogram (CMG). PE-50 tubing (Clay-Adams, Parsippany, N.J.) was inserted into the bladder through the urethra and connected via a three-way stopcock to a pressure transducer and to a syringe pump. This was used for recording intravesical pressure and for infusing solutions into the bladder. A control CMG was performed by slowly filling the bladder with saline (0.04 ml/min) to elicit repetitive voiding. The amplitude, PT, compliance and intercontraction interval (ICI) of reflex bladder contractions were recorded. Pressure threshold (PT) represents the pressure that induces the initial bladder contraction. PT often has been used as a parameter corresponding to afferent nerve activity for the induction of reflex bladder contractions. Measurements in each animal represented the average of 3 to 5 bladder contractions.
After performing control CMGs with saline infusion, three intravesical infusion experiments were performed in parallel: (1) infusion of KCl (100 or 500 mM in saline) for one hour (N=4 in each group); (2) infusion of PS (Sigma Chemical Co.; 30 mg/ml in saline) for one hour (N=6); and (3) infusion of PS (10 mg/ml) for one hour, followed by 100, 300 or 500 mM KCl for one hour (N=6, in each subgroup). In four animals, capsaicin dissolved in a vehicle containing 10% ethanol, 10% TWEEN®80 and 80% physiological saline, at a concentration of 20 mg/ml was given subcutaneously in divided doses on 2 consecutive days. The doses included 25 and 50 mg/kg at a 12-hour interval on the first day and 50 mg/kg on the second day, as previously described (C. L. Cheng et al., 1993, Am. J. Physiol. 265:R132-138). All injections were performed under halothane anesthesia. Four days after the last dosage of capsaicin, the animals were anesthetized and treated with intravesical administration of PS (10 mg/ml) for 1 hour followed by KCl (500 mM) infusion.
Suppression of Micturition Reflex. To evaluate the direct effects of potassium on detrusor muscle, micturition reflex was blocked in 4 animals by either intravenous hexamethonium injection (25 mg/kg) (N=2) or transection of bilateral pelvic nerves (N=2).
Statistical Analysis. Statistical analyses were performed using Student's t test for paired or unpaired data, as applicable, with p<0.05 considered significant. Quantitative data are expressed in Example 8 (below) as means plus or minus standard error.

[4] = test system: hyperactive bladder (PS/KCl); test: Continuous CMG, hyperactive bladder induced by PS/KCl (Examples 5-6)
Experimental: as §1, §2, §3, §4, §5, §6, §7

[5] = AA 1 hr in capsaicin pretreated rats, N=4
[6] = AA 2 hr in capsaicin pretreated rats, N=4
[7] = AA at 1 hour, capsaicin pretreated animals
[8] = AA at 2 hours, capsaicin pretreated animals
[9] = Table 2A series: saline, AA 0.1% 1 h, LP 2 h, N=6
[10] = Table 2B series: saline, AA 0.1% 1 h, saline, N=6
[11] = Table 2C series: saline, LP 1 h, AA 1 h, N=6
[12] = Table 1A: PS 10 mg/ml infusion 1 hour after saline, N=6

1-alkyl-2-acetoyl-sn-glycero-3-phosphocholine [PAF]
bladder reflex activity ([1]; instilled alone or included with DSPC liposomes at 1-5 mol %): aggravated the bladder reflex activity

CC(=O)O [AA, acetic acid]
compliance reduction ([2]; AA 0.1%, two series of experiments): 71-76% | ICI ([2]; AA 1 hr in capsaicin pretreated rats (125 mg/kg sc, four days before), N=4): 10.2 ± 3.0 min | Amplitude [2, 5]: 20.9 ± 2.5 cm H2O | Compliance [2, 5]: 0.152±0.028 ml/cm H2O | PT [2, 5]: 6.7 ± 0.2 cm H2O | Amplitude [2, 6]: 23.6 ± 5.7 cm H2O | Compliance [2, 6]: 0.082±0.024 ml/cm H2O | ICI [2, 6]: 4.6 ± 1.2 min | PT [2, 6]: 6.7 ± 0.7 cm H2O | ICI reduction [2, 7]: 51% | compliance reduction [2, 7]: 33% | ICI decrease [2, 8]: 78% | compliance decrease [2, 8]: 64% | Amplitude change ([2]; AA infusion): slight increase | PT change ([2]; AA infusion): not significantly changed | bladder hyperactivity in CMG tracings / summary ([2]; FIGS. 10A-10F, summary of Examples 5-6): elicited bladder hyperactivity | Amplitude [2, 9]: 36.8 ± 6.5 cm H2O | Compliance [2, 9]: 0.071±0.016 ml/cm H2O | ICI [2, 9]: 2.4 ± 0.5 min | PT [2, 9]: 8.3 ± 0.9 cm H2O | Amplitude [2, 10]: 37.0 ± 7.0 cm H2O | Compliance [2, 10]: 0.079±0.026 ml/cm H2O | ICI [2, 10]: 2.9 ± 0.9 min | PT [2, 10]: 9.1 ± 1.4 cm H2O | Amplitude [2, 11]: 38.0 ± 1.3 cm H2O | Compliance [2, 11]: 0.071 ± 0.022 ml/cm H2O | ICI [2, 11]: 3.1 ± 0.8 min | PT [2, 11]: 6.7 ± 0.7 cm H2O | time until irritative effect evident ([2]; following AA infusion): 20 to 30 min

COc1cc(CNC(=O)CCCCC=CC(C)C)ccc1O [capsaicin, 8-methyl-N-vanillyl-6-nonenamid]
ICI decrease ([3]; capsaicin pretreated animals, PS 10 mg/ml then KCl 500 mM, 2 hours of infusion): 35.5% | delay of hyperactive bladder ([3]; capsaicin pretreated animals, sequential PS 10 mg/ml and KCl 500 mM): about 1 hour | delay of onset of irritative effects ([3]; capsaicin pretreatment, PS 10 mg/ml then KCl 500 mM): ~60 min | PS/KCl-induced bladder hyperactivity after capsaicin pretreatment ([3]; capsaicin sc in divided doses, four days before): suppressed PS/KCl-induced bladder hyperactivity | delay of bladder hyperactivity evoked by AA ([2]; capsaicin pretreated animals): 0.5 to 1 h | delay of onset of the irritative effects of AA ([2]; pretreatment with capsaicin 125 mg/kg sc four days before): 30 to 60 min

CCCCCCCCCCCCC/C=C/[C@@H](O)[C@@H](N)COP(=O)(O)O [sphingosine 1-phosphate]
effect on efficacy of DSPC liposomes in reducing bladder contraction frequency ([1]; included at 1 mol % in DSPC liposomes): did not show a similar beneficial effect | effect on efficacy of DSPC liposomes in reducing bladder contraction frequency ([1]; included in DSPC at 1-5 mol % (data not shown)): equally effective as ceramide and sphingosine

protamine sulfate [PS]
Amplitude ([3]; 10 mg/ml PS, one hour, N=18): 25.3 ± 2.0 cm H2O | Compliance ([3]; 10 mg/ml PS, one hour, N=18): 0.176 ± 0.013 ml/cm H2O | ICI ([3]; 10 mg/ml PS, one hour, N=18): 17.8 ± 0.7 min | PT ([3]; 10 mg/ml PS, one hour, N=18): 3.4 ± 0.9 cm H2O | Amplitude ([3]; 30 mg/ml PS, one hour, N=6): 28.3 ± 3.1 cm H2O | Compliance ([3]; 30 mg/ml PS, one hour, N=6): 0.083 ± 0.022 ml/cm H2O | ICI ([3]; 30 mg/ml PS, one hour, N=6): 2.7 ± 0.7 min | PT ([3]; 30 mg/ml PS, one hour, N=6): 7.8 ± 1.1 cm H2O | ICI decrease ([3]; PS 30 mg/ml): 80.6% | PT increase ([3]; PS 30 mg/ml): 36.8% | compliance decrease ([3]; PS 30 mg/ml): 63.6% | delay to irritative effect ([3]; PS 30 mg/ml): 40 to 45 min | bladder hyperactivity ([3]; high concentrations of PS): induced bladder hyperactivity (decreased ICI) | irritative effects / CMG parameters ([3]; low concentration of PS (10 mg/ml), one hour): not observed; also recorded: no significant change; also recorded: produced no effect | Amplitude [4, 12]: 27.5 ± 0.7 cm H2O | Compliance [4, 12]: 0.210 ± 0.031 ml/cm H2O | ICI [4, 12]: 14.9 ± 1.7 min | PT [4, 12]: 5.9 ± 0.9 cm H2O | change of ICI / CMGs ([4]; infused alone: PS 10 mg/ml or KCl 500 mM): not changed; also recorded: did not significantly change the CMGs

— patent publication US8110217B2, “Sphingomyelin liposomes for the treatment of hyperactive bladder disorders” (priority 2001, dated 2012)
